As usually defined, the inhibition is the relative decrease from the control value, in per cent.

We go through 7 molecules from ChEMBL document CHEMBL3132769, “Fragment growing to retain or alter the selectivity of anchored kinase hinge-binding fragments” (Medchemcomm, 2014).

For assay [1], the system named is Tyrosine-protein kinase ABL1 (Homo sapiens), P00519 [T315I]. Briefly: Inhibition of human truncated ABL T315I mutant expressed in baculovirus assessed as substrate phosphorylation using fluorescence-labelled peptides as substrate at 420 uM after 90 mins by microfluidic peptide phosphorylation assay.
Assay [2] addresses T1, Serine/threonine-protein kinase DCLK2 (Homo sapiens) (UniProt Q8N568).
T1 sequence (whole entry): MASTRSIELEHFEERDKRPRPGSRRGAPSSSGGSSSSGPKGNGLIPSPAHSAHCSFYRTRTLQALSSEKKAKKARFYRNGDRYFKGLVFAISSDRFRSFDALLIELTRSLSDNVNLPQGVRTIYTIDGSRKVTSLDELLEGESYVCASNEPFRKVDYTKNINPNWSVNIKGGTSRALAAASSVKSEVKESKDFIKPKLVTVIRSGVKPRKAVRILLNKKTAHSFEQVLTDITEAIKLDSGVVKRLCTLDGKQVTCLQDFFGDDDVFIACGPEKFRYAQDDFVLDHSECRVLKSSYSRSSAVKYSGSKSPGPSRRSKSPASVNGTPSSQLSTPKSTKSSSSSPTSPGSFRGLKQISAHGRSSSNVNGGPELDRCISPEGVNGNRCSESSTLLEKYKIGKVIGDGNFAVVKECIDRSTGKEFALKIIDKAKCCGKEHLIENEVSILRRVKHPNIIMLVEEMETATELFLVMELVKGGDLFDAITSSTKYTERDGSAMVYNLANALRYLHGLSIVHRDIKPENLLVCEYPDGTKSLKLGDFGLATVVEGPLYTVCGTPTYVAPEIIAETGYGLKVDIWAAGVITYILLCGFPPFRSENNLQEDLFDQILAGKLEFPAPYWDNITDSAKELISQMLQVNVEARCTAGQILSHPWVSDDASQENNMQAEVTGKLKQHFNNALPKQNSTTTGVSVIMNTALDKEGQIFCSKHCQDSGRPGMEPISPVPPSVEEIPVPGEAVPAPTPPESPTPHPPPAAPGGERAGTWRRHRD
The assay is described as follows: Inhibition of human full length DCAMKL2 expressed in baculovirus assessed as substrate phosphorylation using fluorescence-labelled peptides as substrate at 0.1 uM after 90 mins by microfluidic peptide phosphorylation assay.

Assay [3] concerns the target T2, Serine/threonine-protein kinase D1 (Homo sapiens) (UniProt Q15139).
T2 sequence (whole entry): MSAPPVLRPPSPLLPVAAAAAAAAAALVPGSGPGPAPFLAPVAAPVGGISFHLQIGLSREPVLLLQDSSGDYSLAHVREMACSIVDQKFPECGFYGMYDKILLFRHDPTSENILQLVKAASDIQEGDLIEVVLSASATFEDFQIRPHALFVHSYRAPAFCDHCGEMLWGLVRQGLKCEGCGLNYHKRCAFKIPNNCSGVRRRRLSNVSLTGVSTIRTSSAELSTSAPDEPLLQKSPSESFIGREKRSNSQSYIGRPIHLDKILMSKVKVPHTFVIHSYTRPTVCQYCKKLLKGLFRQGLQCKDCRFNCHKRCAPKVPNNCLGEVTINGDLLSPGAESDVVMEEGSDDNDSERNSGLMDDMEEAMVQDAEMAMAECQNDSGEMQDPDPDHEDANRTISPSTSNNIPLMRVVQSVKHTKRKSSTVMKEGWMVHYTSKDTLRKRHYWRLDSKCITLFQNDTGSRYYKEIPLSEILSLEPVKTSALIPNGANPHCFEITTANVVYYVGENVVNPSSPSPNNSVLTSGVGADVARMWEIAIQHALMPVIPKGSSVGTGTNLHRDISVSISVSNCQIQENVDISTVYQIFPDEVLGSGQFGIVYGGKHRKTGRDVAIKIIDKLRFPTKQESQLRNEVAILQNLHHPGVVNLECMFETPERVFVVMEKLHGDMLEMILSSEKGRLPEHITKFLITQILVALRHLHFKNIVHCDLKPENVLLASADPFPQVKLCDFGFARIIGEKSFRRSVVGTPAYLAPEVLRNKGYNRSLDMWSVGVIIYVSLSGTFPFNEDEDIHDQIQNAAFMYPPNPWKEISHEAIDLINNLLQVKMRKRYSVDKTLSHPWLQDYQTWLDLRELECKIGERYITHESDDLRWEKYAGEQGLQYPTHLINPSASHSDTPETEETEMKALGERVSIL
The assay is described as follows: Inhibition of human full length PKD1 expressed in baculovirus assessed as substrate phosphorylation using fluorescence-labelled peptides as substrate at 0.2 uM after 90 mins by microfluidic peptide phosphorylation assay.

The target of assay [4] is Ribosomal protein S6 kinase alpha-1 (Homo sapiens) (UniProt Q15418). The assay is described as follows: Inhibition of human full length RSK1 expressed in baculovirus assessed as substrate phosphorylation using fluorescence-labelled peptides as substrate at 70 uM after 90 mins by microfluidic peptide phosphorylation assay.
Assay [5] has the same target. Briefly: Inhibition of human full length RSK1 expressed in baculovirus assessed as substrate phosphorylation using fluorescence-labelled peptides as substrate at 2 uM after 90 mins by microfluidic peptide phosphorylation assay.
Assay [6] deals with Cyclin-dependent kinase 2 (Homo sapiens) (UniProt P24941). Briefly: Inhibition of human full length CDK2 expressed in baculovirus assessed as substrate phosphorylation using fluorescence-labelled peptides as substrate at 2 uM after 90 mins by microfluidic peptide phosphorylation assay.
Assay [7] addresses Protein kinase C delta type (Homo sapiens) (UniProt Q05655). Briefly: Inhibition of human truncated PKC delta expressed in baculovirus assessed as substrate phosphorylation using fluorescence-labelled peptides as substrate at 1000 uM after 90 mins by microfluidic peptide phosphorylation assay.
For assay [8], the target named is T3, Serine/threonine-protein kinase Sgk3 (Homo sapiens) (UniProt Q96BR1).
T3 sequence (whole entry): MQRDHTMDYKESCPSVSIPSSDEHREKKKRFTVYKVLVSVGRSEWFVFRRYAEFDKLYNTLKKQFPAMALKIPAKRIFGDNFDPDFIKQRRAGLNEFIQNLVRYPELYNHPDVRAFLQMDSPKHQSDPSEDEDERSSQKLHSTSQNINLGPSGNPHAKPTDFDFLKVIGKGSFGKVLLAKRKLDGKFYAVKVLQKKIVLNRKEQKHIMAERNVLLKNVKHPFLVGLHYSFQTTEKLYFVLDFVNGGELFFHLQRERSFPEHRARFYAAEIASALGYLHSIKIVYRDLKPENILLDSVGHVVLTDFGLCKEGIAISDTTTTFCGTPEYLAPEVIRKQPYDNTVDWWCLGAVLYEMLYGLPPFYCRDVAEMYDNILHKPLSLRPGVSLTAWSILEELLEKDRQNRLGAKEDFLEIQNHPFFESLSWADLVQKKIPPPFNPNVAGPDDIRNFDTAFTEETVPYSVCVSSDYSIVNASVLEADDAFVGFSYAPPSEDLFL
The assay is described as follows: Inhibition of human full length SGK3 expressed in baculovirus assessed as substrate phosphorylation using fluorescence-labelled peptides as substrate at 1000 uM after 90 mins by microfluidic peptide phosphorylation assay.

For assay [9], the target named is Ribosomal protein S6 kinase alpha-5 (Homo sapiens) (UniProt O75582). Briefly: Inhibition of human full length MSK1 expressed in baculovirus assessed as substrate phosphorylation using fluorescence-labelled peptides as substrate at […] after 90 mins by microfluidic peptide phosphorylation assay.
Chain of Ribosomal protein S6 kinase alpha-5 (Homo sapiens) (O75582 whole entry, looked up): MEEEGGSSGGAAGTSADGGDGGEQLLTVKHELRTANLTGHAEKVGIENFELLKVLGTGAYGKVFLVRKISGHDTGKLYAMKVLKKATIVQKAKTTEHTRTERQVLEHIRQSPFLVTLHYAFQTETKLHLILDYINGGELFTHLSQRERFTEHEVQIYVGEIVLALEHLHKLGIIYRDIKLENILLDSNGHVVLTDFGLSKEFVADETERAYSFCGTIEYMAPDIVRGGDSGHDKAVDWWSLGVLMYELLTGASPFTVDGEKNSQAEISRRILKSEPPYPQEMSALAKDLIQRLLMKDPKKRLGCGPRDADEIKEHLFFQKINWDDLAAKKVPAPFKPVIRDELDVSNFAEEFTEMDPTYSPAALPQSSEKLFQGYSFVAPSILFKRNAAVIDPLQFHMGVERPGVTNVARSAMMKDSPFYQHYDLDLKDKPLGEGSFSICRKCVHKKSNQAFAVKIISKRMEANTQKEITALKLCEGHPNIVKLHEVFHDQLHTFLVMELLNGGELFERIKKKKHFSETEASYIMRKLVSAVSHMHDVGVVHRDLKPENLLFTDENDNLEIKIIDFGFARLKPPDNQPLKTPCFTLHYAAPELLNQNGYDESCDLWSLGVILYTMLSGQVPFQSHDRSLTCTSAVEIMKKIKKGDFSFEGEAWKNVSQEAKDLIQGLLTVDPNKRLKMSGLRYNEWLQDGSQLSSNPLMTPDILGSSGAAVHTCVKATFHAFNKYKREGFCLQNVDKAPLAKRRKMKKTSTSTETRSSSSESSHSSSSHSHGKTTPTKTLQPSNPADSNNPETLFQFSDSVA

Chain of Ribosomal protein S6 kinase alpha-1 (Homo sapiens) (Q15418 whole entry): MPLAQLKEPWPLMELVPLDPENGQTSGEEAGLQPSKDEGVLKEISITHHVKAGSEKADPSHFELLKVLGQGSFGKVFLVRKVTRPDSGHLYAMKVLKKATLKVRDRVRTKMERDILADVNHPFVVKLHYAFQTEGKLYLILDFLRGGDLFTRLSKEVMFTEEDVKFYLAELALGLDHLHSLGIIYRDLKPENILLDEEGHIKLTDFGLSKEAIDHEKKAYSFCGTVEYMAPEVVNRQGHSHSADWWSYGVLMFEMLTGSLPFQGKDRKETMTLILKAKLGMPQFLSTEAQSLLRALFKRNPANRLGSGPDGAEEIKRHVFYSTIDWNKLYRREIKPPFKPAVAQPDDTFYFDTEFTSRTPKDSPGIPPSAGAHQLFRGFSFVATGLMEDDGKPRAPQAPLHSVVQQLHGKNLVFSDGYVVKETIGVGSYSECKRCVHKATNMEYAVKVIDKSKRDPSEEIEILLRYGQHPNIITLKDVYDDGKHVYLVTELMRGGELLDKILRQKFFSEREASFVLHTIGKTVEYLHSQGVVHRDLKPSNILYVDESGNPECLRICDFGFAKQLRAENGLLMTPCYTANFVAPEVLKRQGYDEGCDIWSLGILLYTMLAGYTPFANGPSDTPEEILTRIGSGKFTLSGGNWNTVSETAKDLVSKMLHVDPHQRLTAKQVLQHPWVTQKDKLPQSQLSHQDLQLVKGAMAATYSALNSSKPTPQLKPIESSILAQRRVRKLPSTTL
Chain of Protein kinase C delta type (Homo sapiens) (Q05655 whole entry, looked up, the tested form may be a part): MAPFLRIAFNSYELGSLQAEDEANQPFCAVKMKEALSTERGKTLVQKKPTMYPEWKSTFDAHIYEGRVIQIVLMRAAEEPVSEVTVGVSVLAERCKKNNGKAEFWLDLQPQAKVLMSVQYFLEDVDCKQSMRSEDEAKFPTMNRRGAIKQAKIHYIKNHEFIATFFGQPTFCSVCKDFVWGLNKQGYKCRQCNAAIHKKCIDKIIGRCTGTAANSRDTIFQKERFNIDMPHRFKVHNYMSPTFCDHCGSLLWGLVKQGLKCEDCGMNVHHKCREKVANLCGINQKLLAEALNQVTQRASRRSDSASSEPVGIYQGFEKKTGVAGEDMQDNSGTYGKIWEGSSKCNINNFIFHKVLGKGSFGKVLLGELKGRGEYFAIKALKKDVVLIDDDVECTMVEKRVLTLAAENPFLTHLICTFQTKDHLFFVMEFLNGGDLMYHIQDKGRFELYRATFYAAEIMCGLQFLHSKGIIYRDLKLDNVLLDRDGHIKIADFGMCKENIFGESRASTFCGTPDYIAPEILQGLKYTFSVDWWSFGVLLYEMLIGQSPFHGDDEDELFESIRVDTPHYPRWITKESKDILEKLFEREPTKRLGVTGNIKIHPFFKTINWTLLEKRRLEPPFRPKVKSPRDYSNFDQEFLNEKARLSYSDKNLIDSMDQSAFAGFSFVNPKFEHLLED

In the case of `c1nc(N2CCOCC2)c2nc[nH]c2n1`, in assay [1], the inhibition is 73%. In the case of `C[C@H](CN(C)C)Oc1nc(Nc2cc3cccc(Cl)c3cn2)cnc1C#N`, in assay [2], the inhibition was 6%. As for `Clc1ccc(C2(c3ccc(-c4ncnc5[nH]cnc45)cc3)CCNCC2)cc1`, the inhibition in assay [3] worked out at 8%. For the molecule `CNCc1ccc(-c2ncnc3[nH]cnc23)cc1`, the inhibition in [4] was found to be 48%.

In the case of `NC1CCN(c2ncnc3[nH]ccc23)CC1`, the inhibition in assay [5] is 7.5%; in assay [6], 0%. For the molecule `c1cnc2[nH]ccc2c1`, the inhibition in assay [7] was found to be 45.5%; in assay [8], 80.5%. On to `COC(=O)c1cnc(Nc2cnc(C#N)cn2)cc1NCC1CCNCC1`, for which the inhibition in assay [9] is 8%.
